Data published in patent US9023809B2, “Phenylalanine dipeptide derivatives, compositions and use thereof” (The Key Laboratory of Chemistry For Natural Products of …, priority 2008, dated 2015).
Converted amounts (≈) assume the structure as drawn. Where two headings read alike, the source gives them in different places. Marks after values point to notes of the source that are not given here. Where a SMILES comes first, the peptide text is derived from it. [ ]: non-standard residue; d: D form. The star is where a group is joined. Phe(4-NH2) = Nc1ccc(C[C@H](N)C(=O)O)cc1; Bz = O=C(c1ccccc1)*

How the values were obtained:
2.2.15 cells = experiment: Cytotoxicity (TC50, median toxic concentration) in 2.2.15 cells; format: cell-based
Description: (§1) Cell control wells were simultaneously set up. […] IC50 and SI were calculated, respectively.

HBV DNA replication = experiment: In vitro anti-HBV: inhibition of HBV DNA replication in 2.2.15 cells (dot blot); format: cell-based, hepatitis B virus; conditions: day 8, dot blot; for IC50: Hepatitis B virus, 192 h
Description: as §1

DHBV-DNA = experiment: In vivo inhibition of DHBV-DNA in DHBV-infected ducklings; conditions: intraperitoneal daily
Description: Test compounds: the compound prepared in Example 75
Test method: One-day-old ducklings were infected with serum containing DHBV positive virus (about 10^8-9 virions/ml). After a week, blood was collected and tested. The successfully transfected ducklings were randomly divided into three to five groups. Blank group, positive control group and treatment group(s) (one to three groups) were subjected to treatment tests. The treatment groups were divided into high, median and low dose groups. Intraperitoneal injection was carried out daily for ten days. Physiological saline was used to replace drugs in the blank group. Lamivudine was administered in the positive control group. […] Serum was separated and kept at −70° C. for tests. Duck hepatitis B virus surface antigen (DHBsAg) was assayed with DHBsAg dot molecular hybridization (DOT EIA). Duck hepatitis B virus deoxyribonucleic acid (DHBV DNA) contents in serum and duck livers were assayed with dot blot hybridization.

HBsAg = experiment: In vitro anti-HBV: inhibition of HBsAg secretion in 2.2.15 cell supernatant (RIA); format: cell-based, hepatitis B virus; conditions: for IC50: Hepatitis B virus, 192 h, read-out: Inhibition of HBsAg IC50
Description: Test Principle: • 2.2.15 cells were used as a vector of hepatitis B virus. Samples were assayed for their abilities to inhibit […] to carry out DNA replication and to produce HBsAg and HBeAg.
Test Materials and Method: • a. cell line: 2.2.15 cells; • b. treatment of samples: A sample was dissolved in DMSO in a suitable concentration right before use. The resulting solution was diluted in triple folds with culture media. There are eight dilutions. • c. positive control: Lamivudine (3TC) produced by Glaxo Wellcome; • d. reagents: radioimmunological kits of e antigen and s antigen of hepatitis B virus, α^32PdCTP; • e. test method: 2.2.15 cells were seeded in a 96-well microplate. After 36 hours, samples and positive controls in the above dilutions were added into the wells. Cell control wells were simultaneously set up. Culture media were replaced with fresh culture media containing samples in different dilutions, respectively, after 96 hours of addition of samples and positive controls. At the eighth day of addition of samples and positive controls, cell supernatants and 2.2.15 cells were harvested, respectively. Secretory volumes of HBsAg and HBeAg in the cell supernatants were assayed with the RIA method. The degree of HBV DNA replication in the cells was assayed with dot blot method. IC50 and SI were calculated, respectively.

HBeAg = conditions: 2.2.15 cells, day 8, RIA
Description: Test Principle: • 2.2.15 cells were used as a vector of hepatitis B virus. Samples were assayed for their abilities to inhibit NBV to carry out DNA replication and to produce HBsAg and HBeAg.
Test Materials and Method: • a. cell line: 2.2.15 cells; • b. treatment of samples: A sample was dissolved in DMSO in a suitable concentration right before use. The resulting solution was diluted in triple folds with culture media. […] After 36 hours, samples and positive controls in the above dilutions were added into the wells. Cell control wells were simultaneously set up. Culture media were replaced with fresh culture media containing samples in different dilutions, respectively, after 96 hours of addition of samples and positive controls. At the eighth day of addition of samples and positive controls, cell supernatants and 2.2.15 cells were harvested, respectively. Secretory volumes of HBsAg and HBeAg in the cell supernatants were assayed with the RIA method. The degree of HBV DNA replication in the cells was assayed with dot blot method. IC50 and SI were calculated, respectively.

[1] = 50.0 mg/kg, 3rd Day of Withdrawal
[2] = 12.5 mg/kg, 3rd Day of Withdrawal
[3] = 25.0 mg/kg, 3rd Day of Withdrawal

For `Nc1ccn([C@@H]2CS[C@H](CO)O2)c(=O)n1` [Example 3TC, Lamivudine, reference compound], which TC50 (2.2.15 cells) is on record?
Its TC50 is 786.00 µg/mL (≈ 3430 µM).

What about the IC50 (HBV DNA replication) of the same compound?
The IC50 was 18.9 µg/mL (≈ 82.4 µM).

And the “Inhibition Ratio” value (DHBV-DNA; [1])?
Its value is 0.3.

What about the “OD Value” (DHBV-DNA; [1]) of the same compound?
The value was 1.54.

What about the “Inhibition Ratio” value (DHBV-DNA; 50.0 mg/kg, 5th Day of Test) of the same compound?
Its value is 53.71^d.

And the “OD Value” (DHBV-DNA; 50.0 mg/kg, 5th Day of Test)?
The value was 0.73^b.

What about the “Inhibition Ratio” value (DHBV-DNA; 50.0 mg/kg, 10th Day of Test) of the same compound?
Its value is 57.22^d.

And the “OD Value” (DHBV-DNA; 50.0 mg/kg, 10th Day of Test)?
Its value is 0.68^b.

With `O=C(N[C@@H](Cc1ccccc1)C(=O)N[C@H](CO)Cc1ccccc1)c1ccc(CN2CCOCC2)cc1` [Example 51, N-{N-[4-(4-morpholinyl)methyl-benzoyl]-L-phenylalanyl}-L-phenylalaninol] as the compound, how does the TC50 (2.2.15 cells) read?
Its TC50 is 78.52 µg/mL (≈ 157 µM).

And the IC50 (HBV DNA replication)?
The IC50 was 6.98 µg/mL (≈ 13.9 µM).

What about the melting point of the same compound?
The melting point was 183 to 184.5 °C.

With `CCOC(=O)c1ccc(C(=O)N[C@@H](Cc2ccccc2)C(=O)N[C@H](CO)Cc2ccccc2)cc1` [Example 52, N-[N-(4-ethoxycarbonyl-benzoyl)-L-phenylalanyl]-L-phenylalaninol] as the compound, how does the TC50 (2.2.15 cells) read?
The TC50 was 89.23 µg/mL (≈ 188 µM).

What about the IC50 (HBV DNA replication) of the same compound?
The IC50 was 24.2 µg/mL (≈ 51 µM).

And the melting point?
Its melting point is 188 to 189.5 °C.

For `COC(=O)[C@H](Cc1ccccc1)NC(=O)[C@H](Cc1ccccc1)N(C(C)=O)C(=O)c1ccccc1` [Example 57, methyl N-(N-benzoyl-acetyl-L-phenylalanyl)-L-phenylalaninate], which TC50 (2.2.15 cells) is on record?
Its TC50 is 451.20 µg/mL (≈ 955 µM).

What about the IC50 (HBV DNA replication) of the same compound?
The IC50 was 59.5 µg/mL (≈ 126 µM).

What about the melting point of the same compound?
The melting point was 221 to 222 °C.

What does the source list for `COC(=O)[C@H](Cc1ccc(OC(C)=O)cc1)NC(=O)[C@H](Cc1ccc(NC(C)=O)cc1)NC(=O)c1ccc(C)cc1` [Example 68, methyl N-[N-(4-methyl-benzoyl)-4-acetamido-L-phenylalanyl]-O-acetyl-L-tyrosinate]?
TC50 (2.2.15 cells): 388.03 µg/mL (≈ 693 µM); IC50 (HBV DNA replication): 13.1 µg/mL (≈ 23.4 µM); melting point: 222 to 223 °C

Which TC50 (2.2.15 cells) does the source give for `CCCCOc1ccc(C[C@H](NC(=O)[C@H](Cc2ccccc2)NC(=O)c2ccccc2)C(=O)OC)cc1` [Example 72, methyl N-(N-benzoyl-L-phenylalanyl)-O-n-butyl-L-tyrosinate] here?
The TC50 was 577.35 µg/mL (≈ 1150 µM).

And the IC50 (HBV DNA replication)?
Its IC50 is 87.5 µg/mL (≈ 174 µM).

And the melting point?
The melting point was 177 to 178 °C.

Which TC50 (2.2.15 cells) does the source give for `CCCCOc1ccc(C[C@H](NC(=O)[C@H](Cc2ccccc2)NC(=O)c2ccccc2)C(=O)[O-])cc1.[Na+]` [Example 74, N-(N-benzoyl-L-phenylalanyl)-O-n-butyl-L-tyrosine sodium salt] here?
Its TC50 is >500 µg/mL.

And the IC50 (HBsAg; 2.2.15 cells, day 8, RIA)?
Its IC50 is 25.2 µg/mL.

What about the IC50 (HBV DNA replication) of the same compound?
Its IC50 is 33 µg/mL.

For `CN(C)CCOc1ccc(C[C@H](NC(=O)c2ccccc2)C(=O)N[C@H](CO)Cc2ccccc2)cc1.Cl` [Example 75, N-[N-berizoyl-O-(2-dimethylamino-ethyl)-L-tyrosyl]-L-phenylalaninol hydrochloride], which TC50 (2.2.15 cells) is on record?
Its TC50 is 388.03 µg/mL.

And the “Inhibition of HBsAg IC50” value (HBsAg; 2.2.15 cells, day 8, RIA)?
The value was 33.51 µg/mL.

What about the “Inhibition of DNA Replication IC50” value (HBV DNA replication) of the same compound?
The value was 2.41 µg/mL.

And the “Inhibition Ratio” value (DHBV-DNA; [2])?
Its value is 9.23.

What about the “OD Value” (DHBV-DNA; [2]) of the same compound?
Its value is 1.09.

What about the “Inhibition Ratio” value (DHBV-DNA; 12.5 mg/kg, 5th Day of Test) of the same compound?
The value was 12.87.

And the “OD Value” (DHBV-DNA; 12.5 mg/kg, 5th Day of Test)?
Its value is 1.11.

And the “Inhibition Ratio” value (DHBV-DNA; 12.5 mg/kg, 10th Day of Test)?
The value was 12.92^a.

And the “OD Value” (DHBV-DNA; 12.5 mg/kg, 10th Day of Test)?
The value was 1.11^a.

And the “Inhibition Ratio” value (DHBV-DNA; [3])?
Its value is 38.12^d.

What about the “OD Value” (DHBV-DNA; [3]) of the same compound?
Its value is 0.87^b.

What about the “Inhibition Ratio” value (DHBV-DNA; 25.0 mg/kg, 5th Day of Test) of the same compound?
Its value is 18.67^c.

And the “OD Value” (DHBV-DNA; 25.0 mg/kg, 5th Day of Test)?
Its value is 1.15^a.

What about the “Inhibition Ratio” value (DHBV-DNA; 25.0 mg/kg, 10th Day of Test) of the same compound?
Its value is 32.91^d.

And the “OD Value” (DHBV-DNA; 25.0 mg/kg, 10th Day of Test)?
Its value is 0.95^b.

What about the “Inhibition Ratio” value (DHBV-DNA; [1]) of the same compound?
Its value is 42.30^d.

What about the “OD Value” (DHBV-DNA; [1]) of the same compound?
Its value is 0.83^b.

And the “Inhibition Ratio” value (DHBV-DNA; 50.0 mg/kg, 5th Day of Test)?
Its value is 36.43^c.

And the “OD Value” (DHBV-DNA; 50.0 mg/kg, 5th Day of Test)?
Its value is 0.94^a.

And the “Inhibition Ratio” value (DHBV-DNA; 50.0 mg/kg, 10th Day of Test)?
The value was 54.62^d.

What about the “OD Value” (DHBV-DNA; 50.0 mg/kg, 10th Day of Test) of the same compound?
Its value is 0.73^b.

What about the “Inhibition of HBeAg IC50” value (HBeAg) of the same compound?
The value was 13.51 µg/mL.

Which TC50 (2.2.15 cells) does the source give for `O=C(N[C@@H](Cc1ccc(OCO)cc1)C(=O)N[C@H](CO)Cc1ccccc1)c1ccccc1.[Na]` [Example 80, N-[N-benzoyl-O-hydroxymethyl-L-tyrosyl]-L-phenylalaninol sodium salt] here?
Its TC50 is 388.03 µg/mL.

What about the IC50 (HBsAg) of the same compound?
Its IC50 is 150 µg/mL.

What about the IC50 (HBV DNA replication) of the same compound?
Its IC50 is 27.3 µg/mL.

Which results are given for `CC(=O)Nc1ccc(C[C@H](NC(=O)c2ccccc2)C(=O)N[C@@H](Cc2ccccc2)C(=O)O)cc1` [Example 87, N-(N-benzoyl-4-acetamido-L-phenylalanyl)-L-phenylalanine] (Bz-[Phe(4-NH2)](Ac)-Phe-OH)?
TC50 (2.2.15 cells): 43.11 µg/mL (≈ 91 µM); IC50 (HBV DNA replication): 1.81 µg/mL (≈ 3.82 µM); melting point: 233.5 to 235.5 °C
